From patent US12173018B2, “Penicillin-binding protein inhibitors” (priority 2018, dated 2024)
≈ marks a conversion by molar mass, not a printed value.

Experiments:
E. coli PBP4 = E. coli PBP4 (Escherichia coli (strain K12), UniProt P24228); test: E. coli PBP4 Bocillin-FL fluorescence polarization competition binding assay; conditions: fluorescence polarization competition binding with Bocillin-FL; read-out: E. coli K12 PBP4 Potency (EC50)
Excerpt: To determine the ability of boronic acid-based test PBP inhibitors to bind Penicillin Binding Proteins (PBPs), Bocillin-FL (fluorescently-labeled penicillin V; ThermoFisher Scientific) was used in a fluorescence polarization (FP) competition binding assay to assess inhibitor binding to PBP2, PBP3 or PBP4 from Escherichia coli. PBPs were cloned and purified as described previously (King, D. T, et al., ACS Infectious Diseases 2015, 1, 175-184). To establish assay conditions for competition binding, an enzyme titration/saturation binding experiment was initially performed. Bocillin-FL was prepared at 0.2 μM in a buffer comprised of 50 mM Hepes (pH 8.0), 300 mM NaCl and 5% (v/v) glycerol. Saturation binding was performed by mixing 40 μl of PBP solutions ranging in concentrations from 0-12 μM with 40 μl of the 0.2 μM Bocillin-FL solution, in individual wells of a black 384-well microplate. FP was measured immediately upon mixing (Excitation, 490 nm; Emission, 520 nm; g-factor, 0.96), using a Cytation3 (BioTek) microplate reader and measured continuously for up to 120 minutes. […] Assays (80 μl final volume) were performed with PBPs at a final concentration of 1.5 μM, Bocillin-FL at 0.1 μM and beta-lactam concentrations that ranged from 0-1000 μM. […] Bocillin-FL was added and the FP immediately measured for 60 minutes (90 minutes for PBP2). The beta-lactam potency was reported as the concentration of beta-lactam required to reduce binding of Bocillin-FL by […] (EC50). […] Binding assays for boronic acid PBP inhibitors were performed in an identical fashion.

E. coli PBP1b = E. coli PBP1b (Escherichia coli (strain K12), UniProt P02919); test: Radioligand competition binding assay with 14C-labeled boronic acid probe, PBP1b
Sequence of E. coli PBP1b (P02919 whole entry): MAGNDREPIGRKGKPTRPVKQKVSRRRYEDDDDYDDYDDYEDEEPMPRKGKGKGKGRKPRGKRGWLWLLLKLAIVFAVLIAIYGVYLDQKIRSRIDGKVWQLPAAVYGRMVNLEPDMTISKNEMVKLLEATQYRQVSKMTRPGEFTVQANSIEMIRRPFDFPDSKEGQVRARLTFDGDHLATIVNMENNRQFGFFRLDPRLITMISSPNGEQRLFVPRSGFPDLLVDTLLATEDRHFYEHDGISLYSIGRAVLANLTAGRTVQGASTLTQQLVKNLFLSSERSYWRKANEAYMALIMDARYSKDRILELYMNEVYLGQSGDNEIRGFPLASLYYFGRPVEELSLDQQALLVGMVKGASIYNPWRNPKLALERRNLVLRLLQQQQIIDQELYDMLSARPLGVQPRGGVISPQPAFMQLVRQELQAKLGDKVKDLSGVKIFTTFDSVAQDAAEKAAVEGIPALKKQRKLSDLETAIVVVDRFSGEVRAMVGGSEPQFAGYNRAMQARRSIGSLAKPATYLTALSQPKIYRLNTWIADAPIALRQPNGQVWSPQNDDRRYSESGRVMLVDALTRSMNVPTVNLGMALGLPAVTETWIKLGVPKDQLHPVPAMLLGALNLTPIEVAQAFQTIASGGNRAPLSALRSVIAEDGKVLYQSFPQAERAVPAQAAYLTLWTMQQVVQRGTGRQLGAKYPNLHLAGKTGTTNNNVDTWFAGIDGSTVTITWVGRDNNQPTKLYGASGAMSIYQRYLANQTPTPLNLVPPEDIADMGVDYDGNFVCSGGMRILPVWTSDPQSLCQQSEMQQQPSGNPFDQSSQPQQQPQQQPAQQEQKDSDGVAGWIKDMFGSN

[1] = test system: engineered strain of Escherichia coli harboring CTX-M15; test: microbe, parasite or virus in culture; type: cell-based; conditions: Escherichia coli, read-out: Microbiological Activity (MIC in mg/L), E. coli DH5α/pLBII-CTX-M15, engineered strain producing CTX-M15

Sequence of E. coli PBP4 (P24228 21-477): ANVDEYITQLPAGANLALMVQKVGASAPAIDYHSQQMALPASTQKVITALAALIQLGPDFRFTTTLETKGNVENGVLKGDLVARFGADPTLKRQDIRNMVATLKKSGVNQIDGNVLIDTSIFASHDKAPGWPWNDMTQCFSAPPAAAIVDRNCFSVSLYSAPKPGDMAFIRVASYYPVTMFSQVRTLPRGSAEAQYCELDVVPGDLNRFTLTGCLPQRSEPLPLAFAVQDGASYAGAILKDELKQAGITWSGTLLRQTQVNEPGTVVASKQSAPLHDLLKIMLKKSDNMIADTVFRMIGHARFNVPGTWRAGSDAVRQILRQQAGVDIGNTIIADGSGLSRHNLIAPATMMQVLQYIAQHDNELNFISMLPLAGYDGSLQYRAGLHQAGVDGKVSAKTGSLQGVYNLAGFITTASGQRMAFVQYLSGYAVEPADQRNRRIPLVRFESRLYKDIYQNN

CCCN1CCN(C(=O)NC(C(=O)N[C@H]2Cc3cccc(C(=O)O)c3OB2O)c2ccc(O)c(O)c2Cl)C(=O)C1=O (stereo partly drawn) [Example 82, (3R)-3-(2-(2-chloro-3,4-dihydroxyphenyl)-2-(2,3-dioxo-4-propylpiperazine-1-carboxamido)acetamido)-2-hydroxy-3,4-dihydro-2H-benzo[e][1,2]oxaborinine-8-carboxylic acid] was tested, and the EC50 (E. coli PBP4) was > 500 µM, the EC50 (E. coli PBP1b) was 10 to 100 µM and the MIC [1] was 32 to 64 mg/L (≈ 54.4 to 109 µM).

For CCN1CCN(C(=O)N[C@@H](C(=O)N[C@H]2Cc3ccc(F)c(C(=O)O)c3OB2O)[C@@H](C)O)C(=O)C1=O [Example 110, (R)-3-((2R,3R)-2-(4-ethyl-2,3-dioxopiperazine-1-carboxamido)-3-hydroxybutanamido)-7-fluoro-2-hydroxy-3,4-dihydro-2H-benzo[e][1,2]oxaborinine-8-carboxylic acid], the EC50 (E. coli PBP4) was > 500 µM, the EC50 (E. coli PBP1b) was > 100 µM and the MIC [1] was 8 to 16 mg/L (≈ 16.2 to 32.4 µM).

CCN1CCN(C(=O)NC(C(=O)N[C@H]2Cc3cccc(C(=O)O)c3OB2O)c2cccc(O)n2)C(=O)C1=O (stereo partly drawn) [Example 117, (3R)-3-(2-(4-ethyl-2,3-dioxopiperazine-1-carboxamido)-2-(6-hydroxypyridin-2-yl)acetamido)-2-hydroxy-3,4-dihydro-2H-benzo[e][1,2]oxaborinine-8-carboxylic acid] was tested, and the EC50 (E. coli PBP4) was > 500 µM, the EC50 (E. coli PBP1b) was > 100 µM and the MIC [1] was 32 to 64 mg/L (≈ 60.9 to 122 µM).
